Source: article PMC11995724, “Antibiotic target discovery by integrated phenotypic and activity-based profiling of electrophilic fragments” (Cell chemical biology, 2025)

Assay: in vitro
Details: human, hek293t cells

SMILES | viability at 48 h, 25 µM
COc1ccc(C=C(C#N)C(N)=O)c(Cl)c1OC [9-H14, 3-(2-chloro-3,4-dimethoxyphenyl)-2-cyanoprop-2-enamide] | 105%
N#CC(=Cc1ccc(N2CCCCCC2)cc1)C(=O)NCC1CCCO1 (stereo not shown) [9-H15, 3-[4-(azepan-1-yl)phenyl]-2-cyano-N-[(oxolan-2-yl)methyl]prop-2-enamide] | 71.9%
N#CC(=Cc1ccc(Cl)cc1)C(=O)Nc1ccccn1 [9-H16, 3-(4-chlorophenyl)-2-cyano-N-(pyridin-2-yl)prop-2-enamide] | 128%
N#CC(=Cc1ccc(-c2ccc(F)cc2)o1)C(=O)NC1CCCCC1 [9-H17, 2-cyano-N-cyclohexyl-3-[5-(4-fluorophenyl)furan-2-yl]prop-2-enamide] | 77.1%
N#CC(=Cc1c(C2CC2)nc2sccn12)C(=O)NC1CCCCC1 [9-H18, 2-cyano-N-cyclohexyl-3-{6-cyclopropylimidazo[2,1-b][1,3]thiazol-5-yl}prop-2-enamide] | 86.8%
N#CC(=Cc1ccc(Cl)cc1Cl)C(=O)Nc1nccs1 [9-H19, 2-cyano-3-(2,4-dichlorophenyl)-N-(1,3-thiazol-2-yl)prop-2-enamide] | 121%
N#CC(=Cc1ccco1)C(=O)NS(=O)(=O)c1cccc2cnccc12 [9-H20, 2-cyano-3-(furan-2-yl)-N-(isoquinoline-5-sulfonyl)prop-2-enamide] | 105%
COc1cc(C=C(C#N)C(=O)NC2CCCCC2C)cc(OC)c1O (stereo not shown) [9-H21, 2-cyano-3-(4-hydroxy-3,5-dimethoxyphenyl)-N-(2-methylcyclohexyl)prop-2-enamide] | 95.8%
N#CC(=Cc1ccsc1)C(=O)NCc1ccco1 [9-H22, 2-cyano-N-[(furan-2-yl)methyl]-3-(thiophen-3-yl)prop-2-enamide] | 123%
CCCn1c(C)cc(C=C(C#N)C(=O)N2CCCC2)c1C [9-I03, 3-(2,5-dimethyl-1-propyl-1H-pyrrol-3-yl)-2-(pyrrolidine-1-carbonyl)prop-2-enenitrile] | 134%
N#CC(=Cc1ccc(C(F)(F)F)cc1)C(=O)Nc1ccccc1 [9-I04, 2-cyano-N-phenyl-3-[4-(trifluoromethyl)phenyl]prop-2-enamide] | 93.7%
COc1cc(CNC(=O)C(C#N)=Cc2ccco2)c2ccccc2n1 [9-I05, 2-cyano-3-(furan-2-yl)-N-[(2-methoxyquinolin-4-yl)methyl]prop-2-enamide] | 114%
N#CC(=Cc1ccsc1)C(=O)Nc1ccc(Cl)cc1 [9-I06, N-(4-chlorophenyl)-2-cyano-3-(thiophen-3-yl)prop-2-enamide] | 112%
Cc1nn(C)c(C)c1C=C(C#N)C(=O)Nc1ccccc1F [9-I07, 2-cyano-N-(2-fluorophenyl)-3-(1,3,5-trimethyl-1H-pyrazol-4-yl)prop-2-enamide] | 122%
CN(C)c1ccc(C=C(C#N)C(=O)Nc2ccccc2C(=O)O)cc1 [9-I08, 2-{2-cyano-3-[4-(dimethylamino)phenyl]prop-2-enamido}benzoic acid] | 95.5%
CC(C)NC(=O)C(C#N)=Cc1ccc(F)cc1 [9-I09, 2-cyano-3-(4-fluorophenyl)-N-(propan-2-yl)prop-2-enamide] | 119%
COc1cc(C=C(C#N)C(=O)NCc2ccccc2)cc2c1OCCO2 [9-I10, N-benzyl-2-cyano-3-(8-methoxy-2,3-dihydro-1,4-benzodioxin-6-yl)prop-2-enamide] | 118%
CC(C)NC(=O)C(C#N)=Cc1ccc(C(C)C)cc1 [9-I11, 2-cyano-N-(propan-2-yl)-3-[4-(propan-2-yl)phenyl]prop-2-enamide] | 78.1%
Cc1cc(C=C(C#N)C(N)=O)c(C)n1-c1cccc2ccccc12 [9-I12, 2-cyano-3-[2,5-dimethyl-1-(naphthalen-1-yl)-1H-pyrrol-3-yl]prop-2-enamide] | 86.9%
CCOc1cc(C=C(C#N)C(=O)NC(C)C)cc(Cl)c1O [9-I13, 3-(3-chloro-5-ethoxy-4-hydroxyphenyl)-2-cyano-N-(propan-2-yl)prop-2-enamide] | 87.3%
N#CC(=Cc1cccnc1)C(=O)NCc1ccccc1 [9-I14, N-benzyl-2-cyano-3-(pyridin-3-yl)prop-2-enamide] | 113%
Cc1c(C=C(C#N)C(=O)NCc2ccccc2)cc(C#N)n1C [9-I15, N-benzyl-2-cyano-3-(5-cyano-1,2-dimethyl-1H-pyrrol-3-yl)prop-2-enamide] | 134%
N#CC(=Cc1ccc(O)cc1)C(=O)NCCc1c(F)cccc1F [9-I16, 2-cyano-N-[2-(2,6-difluorophenyl)ethyl]-3-(4-hydroxyphenyl)prop-2-enamide] | 121%
Cc1cc(C)c(NC(=O)C(C#N)=Cc2ccc(C)o2)c(C)c1 [9-I17, 2-cyano-3-(5-methylfuran-2-yl)-N-(2,4,6-trimethylphenyl)prop-2-enamide] | 94.3%
CC1=C(C#N)C(=O)N(C)C(=O)C1=Cc1ccc(-c2ccc(F)cc2)o1 [9-I18, 5-{[5-(4-fluorophenyl)furan-2-yl]methylidene}-1,4-dimethyl-2,6-dioxo-1,2,5,6-tetrahydropyridine-3-carbonitrile] | 125%

SMILES | viability at 48 h, 25 µM
Cc1cccc(C=C(C#N)C(=O)Nc2ccc(F)cc2)c1 [9-I19, 2-cyano-N-(4-fluorophenyl)-3-(3-methylphenyl)prop-2-enamide] | 113%
N#CC(=Cc1c(F)cccc1F)C(=O)Nc1ccccc1Cl [9-I20, N-(2-chlorophenyl)-2-cyano-3-(2,6-difluorophenyl)prop-2-enamide] | 114%
CC(C)(C)c1ccc(C=C(C#N)C(=O)Nc2ccc(C(=O)O)cc2)cc1 [9-I21, 4-[3-(4-tert-butylphenyl)-2-cyanoprop-2-enamido]benzoic acid] | 128%
Cc1ccccc1NC(=O)C(C#N)=Cc1c(Cl)nc2ccccn12 [9-I22, 3-{2-chloroimidazo[1,2-a]pyridin-3-yl}-2-cyano-N-(2-methylphenyl)prop-2-enamide] | 134%
COc1cc(C=C(C#N)C(=O)Nc2nccs2)cc(OC)c1 [9-J03, 2-cyano-3-(3,5-dimethoxyphenyl)-N-(1,3-thiazol-2-yl)prop-2-enamide] | 104%
CC(NC(=O)C(C#N)=Cc1ccco1)c1cccc(-n2cccn2)c1 (stereo not shown) [9-J04, 2-cyano-3-(furan-2-yl)-N-{1-[3-(1H-pyrazol-1-yl)phenyl]ethyl}prop-2-enamide] | 95.9%
Cc1ccc(C=C(C#N)C(=O)Nc2cccc3ncccc23)cc1 [9-J05, 2-cyano-3-(4-methylphenyl)-N-(quinolin-5-yl)prop-2-enamide] | 123%
CCCCNC(=O)C(C#N)=Cc1ccc(C)s1 [9-J06, N-butyl-2-cyano-3-(5-methylthiophen-2-yl)prop-2-enamide] | 94.4%
CC(=Cc1ccccc1)C=C(C#N)C(=O)Nc1ccc2c(c1)OCCO2 [9-J07, 2-cyano-N-(2,3-dihydro-1,4-benzodioxin-6-yl)-4-methyl-5-phenylpenta-2,4-dienamide] | 79.5%
C=CCNC(=O)C(C#N)=CC=Cc1ccccc1 [9-J08, 2-cyano-5-phenyl-N-(prop-2-en-1-yl)penta-2,4-dienamide] | 96.5%
CC1CN(c2ccc(NC(=O)C(C#N)=Cc3ccco3)cc2)CC(C)O1 (stereo not shown) [9-J09, 2-cyano-N-[4-(2,6-dimethylmorpholin-4-yl)phenyl]-3-(furan-2-yl)prop-2-enamide] | 109%
N#CC(=Cc1coc2ccccc2c1=O)C(=O)NCCc1ccccc1 [9-J10, 2-cyano-3-(4-oxo-4H-chromen-3-yl)-N-(2-phenylethyl)prop-2-enamide] | 107%
CCCCNC(=O)C(C#N)=Cc1c(Cl)cccc1Cl [9-J11, N-butyl-2-cyano-3-(2,6-dichlorophenyl)prop-2-enamide] | 25.1%
N#CC(=Cc1c(F)cccc1F)C(=O)Nc1ccccc1F [9-J12, 2-cyano-3-(2,6-difluorophenyl)-N-(2-fluorophenyl)prop-2-enamide] | 103%
CC(C)NC(=O)C(C#N)=Cc1cccc(C(F)(F)F)c1 [9-J13, 2-cyano-N-(propan-2-yl)-3-[3-(trifluoromethyl)phenyl]prop-2-enamide] | 33.9%
Cc1cc(C=C(C#N)C(=O)Nc2nccs2)ccc1-n1cncn1 [9-J14, 2-cyano-3-[3-methyl-4-(1H-1,2,4-triazol-1-yl)phenyl]-N-(1,3-thiazol-2-yl)prop-2-enamide] | 104%
Cc1cc(-n2c(C)cc(C=C(C#N)C(=O)NC3CCCC3)c2C)no1 [9-J15, 2-cyano-N-cyclopentyl-3-[2,5-dimethyl-1-(5-methyl-1,2-oxazol-3-yl)-1H-pyrrol-3-yl]prop-2-enamide] | 91.8%
Cc1ncsc1C=C(C#N)C(=O)Nc1ccc(C(=O)N(C)C)cc1 [9-J16, 4-[2-cyano-3-(4-methyl-1,3-thiazol-5-yl)prop-2-enamido]-N,N-dimethylbenzamide] | 118%
Cc1nn(-c2ccccc2)c(Cl)c1C=C(C#N)C(=O)NC(C)C [9-J17, 3-(5-chloro-3-methyl-1-phenyl-1H-pyrazol-4-yl)-2-cyano-N-(propan-2-yl)prop-2-enamide] | 98.2%
N#CC(=Cc1ccco1)C(=O)NS(=O)(=O)N1CCc2ccccc21 [9-J18, 2-cyano-N-(2,3-dihydro-1H-indole-1-sulfonyl)-3-(furan-2-yl)prop-2-enamide] | 116%
N#CC(=Cc1ccc2c(c1)OCCO2)C(=O)NC1CCCCC1 [9-J19, 2-cyano-N-cyclohexyl-3-(2,3-dihydro-1,4-benzodioxin-6-yl)prop-2-enamide] | 118%
CC(C)NC(=O)C(C#N)=Cc1cccc(F)c1F [9-J20, 2-cyano-3-(2,3-difluorophenyl)-N-(propan-2-yl)prop-2-enamide] | 98%
Cc1cc(C=C(C#N)C(=O)Nc2ccccn2)c(C)n1CC(C)C [9-J21, 2-cyano-3-[2,5-dimethyl-1-(2-methylpropyl)-1H-pyrrol-3-yl]-N-(pyridin-2-yl)prop-2-enamide] | 87.2%
N#CC(=Cc1ccc(F)c(F)c1)C(=O)NC1CCCCC1 [9-J22, 2-cyano-N-cyclohexyl-3-(3,4-difluorophenyl)prop-2-enamide] | 101%
